This data set deals with Phospholipidosis. As to the kind of experiment: Literature-mined public compounds from Kruhlak et al phospholipidosis modelling dataset.
With `CCC(=O)Oc1ccc2c(c1)CC[C@@H]1[C@@H]2CC[C@]2(C)[C@@H](OC(=O)CC)CC[C@@H]12` [ESTRADIOL DIPROPIONATE], the Phospholipidosis result is “Negative: based on the absence of positive reported data from WMDD”.

Take `CCCCCCCCCCC(=O)O[C@H]1CC[C@H]2[C@@H]3CCc4cc(O)ccc4[C@H]3CC[C@]12C` [ESTRADIOL UNDECYLATE]: the Phospholipidosis entry is recorded as “Negative: based on the absence of positive reported data from WMDD”. For `C1CNCCN1.C[C@]12CC[C@@H]3c4ccc(OS(=O)(=O)O)cc4CC[C@H]3[C@@H]1CCC2=O` [ESTROPIPATE] the value was “Negative: based on the absence of positive reported data from WMDD”; for `C#CC(O)(/C=C/Cl)CC` (configuration not stated) [ETHCHLORVYNOL], “Negative: based on the absence of positive reported data from WMDD”; for `C#C[C@]1(O)CC[C@H]2[C@@H]3CCc4cc(O)ccc4[C@H]3CC[C@@]21C` [ETHINYL ESTRADIOL], “Negative: based on the absence of positive reported data from WMDD”. Consider `CCN(CC)C(C)CN1c2ccccc2Sc2ccccc21` (configuration not stated) [ETHOPROPAZINE], for which the Phospholipidosis result was “Negative: based on the absence of positive reported data from WMDD”. For `CCOC(=O)C1N=C(c2ccccc2F)c2cc(Cl)ccc2NC1=O` (configuration not stated) [ETHYL LOFLAZEPATE] the value was “Positive: strong inducer confirmed by electron microscopy”; for `CCCN(CC)C(CC)C(=O)Nc1c(C)cccc1C` (configuration not stated) [ETIDOCAINE], “Negative: based on the absence of positive reported data from WMDD”; for `CCc1cc2c(s1)-n1c(C)nnc1CN=C2c1ccccc1Cl` [ETIZOLAM], “Negative: based on the absence of positive reported data from WMDD”.

As for `CCOC(=O)c1cncn1[C@H](C)c1ccccc1` [ETOMIDATE], the Phospholipidosis result is listed as “Negative: based on the absence of positive reported data from WMDD”. The entry for `COc1cc([C@@H]2c3cc4c(cc3[C@@H](O[C@@H]3O[C@@H]5CO[C@@H](C)O[C@H]5[C@H](O)[C@H]3O)[C@H]3COC(=O)[C@H]23)OCO4)cc(OC)c1O` [ETOPOSIDE] is “Negative: confirmed by electron microscopy”; for `CCOC(=O)/C=C(C)/C=C/C=C(C)/C=C/c1c(C)cc(OC)c(C)c1C` [ETRETINATE] it is “Negative: based on the absence of positive reported data from WMDD”; for `Cc1cc(-c2ccc(/N=N/c3ccc4c(S(=O)(=O)[O-])cc(S(=O)(=O)[O-])c(N)c4c3O)c(C)c2)ccc1/N=N/c1ccc2c(S(=O)(=O)[O-])cc(S(=O)(=O)[O-])c(N)c2c1O.[Na+].[Na+].[Na+].[Na+]` [EVANS BLUE] it is “Negative: based on the absence of positive reported data from WMDD”.

For `CC(=O)OCC(CCn1cnc2cnc(N)nc21)COC(C)=O` [FAMCICLOVIR], the Phospholipidosis entry is listed as “Negative: based on the absence of positive reported data from WMDD”. For `Cc1c(-c2ccccc2)n(/N=N/n2c(-c3ccccc3)c(C)[n+]3ccccc23)c2cccc[n+]12.[Br-].[Br-]` [FAZADINIUM BROMIDE] the value was “Negative: based on the absence of positive reported data from WMDD”; for `CCNC(C)Cc1cccc(C(F)(F)F)c1` (configuration not stated) [FENFLURAMINE], “Positive: strong inducer confirmed by electron microscopy”.

As to `CC(C(=O)O)c1cccc(Oc2ccccc2)c1` (configuration not stated) [FENOPROFEN], the Phospholipidosis result is recorded as “Negative: based on the absence of positive reported data from WMDD”. On to `CC(C)=CCC1C(=O)N(c2ccccc2)N(c2ccccc2)C1=O` [FEPRAZONE], for which the Phospholipidosis entry is listed as “Negative: based on the absence of positive reported data from WMDD”.

For `Cc1c(-c2ccccc2)oc2c(C(=O)OCCN3CCCCC3)cccc2c1=O` [FLAVOXATE], the Phospholipidosis entry is “Negative: based on the absence of positive reported data from WMDD”. The entry for `O=C(NCC1CCCCN1)c1cc(OCC(F)(F)F)ccc1OCC(F)(F)F` (configuration not stated) [FLECAINIDE] is “Negative: confirmed by electron microscopy”. On to `Cc1onc(-c2c(F)cccc2Cl)c1C(=O)N[C@@H]1C(=O)N2[C@@H]1SC(C)(C)[C@@H]2C(=O)O` [FLOXACILLIN], for which the Phospholipidosis result is given as “Negative: based on the absence of positive reported data from WMDD”. For `O=c1[nH]c(=O)n([C@H]2C[C@H](O)[C@@H](CO)O2)cc1F` [FLOXURIDINE] the value was “Negative: based on the absence of positive reported data from WMDD”; for `Nc1nc(=O)[nH]cc1F` [FLUCYTOSINE], “Negative: based on the absence of positive reported data from WMDD”.

In the case of `Nc1nc(F)nc2c1ncn2[C@@H]1O[C@H](COP(=O)(O)O)[C@@H](O)[C@@H]1O` [FLUDARABINE PHOSPHATE], the Phospholipidosis result is given as “Negative: based on the absence of positive reported data from WMDD”. With `O=C(O)c1ccccc1Nc1cccc(C(F)(F)F)c1` [FLUFENAMIC ACID], the Phospholipidosis entry is on record as “Negative: based on the absence of positive reported data from WMDD”. For `O=c1[nH]cc(F)c(=O)[nH]1` [FLUOROURACIL] the value was “Negative: based on the absence of positive reported data from WMDD”; for `CNCCC(Oc1ccc(C(F)(F)F)cc1)c1ccccc1` (configuration not stated) [FLUOXETINE], “Positive: strong inducer confirmed by electron microscopy”. The entry for `CCCCCCCCCC(=O)OCCN1CCN(CCCN2c3ccccc3Sc3ccc(C(F)(F)F)cc32)CC1` [FLUPHENAZINE DECANOATE] is “Negative: based on the absence of positive reported data from WMDD”; for `CCCCCCC(=O)OCCN1CCN(CCCN2c3ccccc3Sc3ccc(C(F)(F)F)cc32)CC1` [FLUPHENAZINE ENANTHATE] it is “Negative: based on the absence of positive reported data from WMDD”; for `CCN(CC)CCN1C(=O)CN=C(c2ccccc2F)c2cc(Cl)ccc21` [FLURAZEPAM] it is “Negative: based on the absence of positive reported data from WMDD”. The entry for `O=C1CN2CCOC2(c2ccccc2F)c2cc(Cl)ccc2N1CCO` (configuration not stated) [FLUTAZOLAM] is “Negative: based on the absence of positive reported data from WMDD”. As for `COCCCC/C(=N\OCCN)c1ccc(C(F)(F)F)cc1` [FLUVOXAMINE], the Phospholipidosis entry was “Positive: weak inducer based on presence of foamy macrophages and cytoplasmic vacuolations”. On to `Nc1nc2ncc(CNc3ccc(C(=O)N[C@@H](CCC(=O)O)C(=O)O)cc3)nc2c(=O)[nH]1` [FOLIC ACID], for which the Phospholipidosis result is reported as “Negative: based on the absence of positive reported data from WMDD”. In the case of `CN(CC(=O)N1CCOCC1)Cc1c(Cl)cccc1NC(=O)c1ccccc1` [FOMINOBEN], the Phospholipidosis entry is “Negative: based on the absence of positive reported data from WMDD”. As to `CCC(=O)O[C@@H](O[P@](=O)(CCCCc1ccccc1)CC(=O)N1C[C@H](C2CCCCC2)C[C@H]1C(=O)O)C(C)C` [FOSINOPRIL], the Phospholipidosis result is given as “Negative: based on the absence of positive reported data from WMDD”. The entry for `NC[C@@H]1O[C@H](O[C@H]2[C@@H](O)[C@H](O[C@@H]3[C@@H](O)[C@H](N)C[C@H](N)[C@H]3O[C@H]3O[C@H](CN)[C@@H](O)[C@H](O)[C@H]3N)O[C@@H]2CO)[C@H](N)[C@@H](O)[C@@H]1O` [FRAMYCETIN] is “Negative: based on the absence of positive reported data from WMDD”. The entry for `NS(=O)(=O)c1cc(C(=O)O)c(NCc2ccco2)cc1Cl` [FUROSEMIDE] is “Negative: confirmed by electron microscopy”; for `CC[N+](CC)(CC)CCOc1cccc(OCC[N+](CC)(CC)CC)c1OCC[N+](CC)(CC)CC.[I-].[I-].[I-]` [GALLAMINE TRIETHIODIDE] it is “Negative: based on the absence of positive reported data from WMDD”; for `Cc1ccc(C)c(OCCCC(C)(C)C(=O)O)c1` [GEMFIBROZIL] it is “Negative: confirmed by electron microscopy”. Consider `CN[C@@H]1[C@@H](O)[C@@H](O[C@@H]2[C@@H](O)[C@H](O[C@H]3O[C@H]([C@@H](C)NC)CC[C@H]3N)[C@@H](N)C[C@H]2N)OC[C@]1(C)O` [GENTAMICIN C1], for which the Phospholipidosis entry is reported as “Positive: strong inducer confirmed by electron microscopy”.

`CN[C@@H]1[C@@H](O)[C@@H](O[C@@H]2[C@@H](O)[C@H](O[C@H]3O[C@H](C(C)N)CC[C@H]3N)[C@@H](N)C[C@H]2N)OC[C@]1(C)O` (some centres not stated) [GENTAMICIN C2]: the Phospholipidosis result is on record as “Positive: strong inducer confirmed by electron microscopy”. As to `Cc1ccc(S(=O)(=O)NC(=O)NN2CC3CCCC3C2)cc1` (configuration not stated) [GLICLAZIDE], the Phospholipidosis result is “Negative: based on the absence of positive reported data from WMDD”. For `OCC(O)CO` [GLYCERIN] the value was “Negative: based on the absence of positive reported data from WMDD”.

`NCC(=O)O` [GLYCINE]: the Phospholipidosis entry is “Negative: based on the absence of positive reported data from WMDD”.

`COCCOc1cnc(NS(=O)(=O)c2ccccc2)nc1` [GLYMIDINE]: the Phospholipidosis result was “Negative: based on the absence of positive reported data from WMDD”. In the case of `COC1=CC(=O)C[C@@H](C)[C@]12Oc1c(Cl)c(OC)cc(OC)c1C2=O` [GRISEOFULVIN], the Phospholipidosis result is on record as “Negative: based on the absence of positive reported data from WMDD”. On to `CCC(C)(C)N/C(N)=N/C#N` [GUANCYDINE], for which the Phospholipidosis result is “Negative: based on the absence of positive reported data from WMDD”. Take `N=C(N)NCCN1CCCCCCC1` [GUANETHIDINE]: the Phospholipidosis entry is listed as “Negative: based on the absence of positive reported data from WMDD”.

As for `O=C1CN=C(c2ccccc2)c2cc(Cl)ccc2N1CC(F)(F)F` [HALAZEPAM], the Phospholipidosis entry is “Negative: based on the absence of positive reported data from WMDD”. With `CCCCN(CCCC)CCC(O)c1cc2c(Cl)cc(Cl)cc2c2cc(C(F)(F)F)ccc12` (configuration not stated) [HALOFANTRINE], the Phospholipidosis result is “Negative: based on the absence of positive reported data from WMDD”. For `O=C(CCCN1CCC(O)(c2ccc(Cl)cc2)CC1)c1ccc(F)cc1` [HALOPERIDOL], the Phospholipidosis entry is “Positive: strong inducer confirmed by electron microscopy”.

For `CC1(C)S[C@@H]2[C@H](N3C(=O)[C@@H](c4ccccc4)NC3(C)C)C(=O)N2[C@H]1C(=O)O` [HETACILLIN], the Phospholipidosis result is given as “Negative: based on the absence of positive reported data from WMDD”.

The record behind these values is ChEMBL document CHEMBL1697821, “Development of a phospholipidosis database and predictive quantitative structure-activity relationship (QSAR) models” (Toxicol Mech Methods, 2008).
